Our source for the IC50 values is patent publication US20260327215A1, “ISOXAZOLIDINES AS RIPK1 INHIBITORS AND USE THEREOF” (GENZYME CORPORATION, priority 2022, published 2026).

pIC50: −log10 of the molar value.

Assay [1] concerns the target T1, hRIPK1 (aa 1-375) fusion protein (Homo sapiens, UniProt Q13546).
T1 construct: hRIPK1 (aa 1-375) fusion protein
T1 sequence (Q13546 1-375): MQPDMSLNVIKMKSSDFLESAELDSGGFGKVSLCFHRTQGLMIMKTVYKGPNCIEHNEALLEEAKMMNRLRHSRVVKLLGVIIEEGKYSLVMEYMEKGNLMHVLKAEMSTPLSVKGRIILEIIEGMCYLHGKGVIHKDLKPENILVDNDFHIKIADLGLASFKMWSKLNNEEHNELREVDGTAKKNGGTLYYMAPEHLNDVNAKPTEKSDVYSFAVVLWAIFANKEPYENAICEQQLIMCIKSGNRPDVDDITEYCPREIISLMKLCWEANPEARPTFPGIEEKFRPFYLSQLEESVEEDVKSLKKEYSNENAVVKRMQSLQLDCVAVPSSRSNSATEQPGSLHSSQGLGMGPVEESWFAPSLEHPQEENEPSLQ
The experiment in a line: ADP Glo assay: RIPK1 autophosphorylation (ATP to ADP conversion) inhibition. The assay is classed as biochemical. The note with it: 50 μM ATP; 30 min preincubation, 240 min incubation at room temperature; 1% DMSO. On the procedure:
Evaluation of Receptor-Interacting Protein Kinase 1 Inhibition.
The catalytic activity of RIPK1 was measured by monitoring the conversion of Adenosine triphosphate (ATP) to Adenosine diphosphate (ADP) due to autophosphorylation using an ADP-Glo kinase kit (Promega, catalog no. V9104).
After another 240 minutes incubation at room temperature, 5 μl Promega ADP-Glo reagent I were added to quench the reaction and deplete unconsumed ATP. After an incubation period of 30 minutes, 10 μl Promega ADP-Glo detection reagent II were added resulting in conversion of ADP to ATP, which generates a light-reaction between luciferase and luciferin. Luminescence was quantified after 30 minutes with a Pherastar FS (BMG LABTECH, Ortenberg).
The adjustment was obtained by nonlinear regression using the Levenberg Marquardt algorithm.

The test system of another assay is U937 cells. In words: U937 cell assay: inhibition of TNFa/zVAD-induced cell death (necroptosis), MTS viability. Type of assay: cell-based.

`COc1cc(N2CCC(C(=O)N3OCC[C@H]3c3cc(F)cc(C#N)c3)CC2)ncn1` [Example 4, (S)-3-fluoro-5-(2-(1-(6-methoxypyrimidin-4-yl)piperidine-4-carbonyl)isoxazolidin-3-yl)benzonitrile]: the negative logarithm of the IC50 (pIC50) in assay [1] was 7.47; in the assay on U937 cells, 7.10.

`COc1ncnc(N2CCC(C(=O)N3OCC[C@H]3c3cc(F)cc(C#N)c3)CC2)c1F` [Example 5, 3-fluoro-5-[(3S)-2-[1-(5-fluoro-6-methoxy-pyrimidin-4-yl)piperidine-4-carbonyl]isoxazolidin-3-yl]benzonitrile] had a pIC50 in the assay with U937 cells of 8.10.
